According to US11382889B2, “NRF2 activators for the prevention and/or treatment of axonal degeneration” (priority 2018, dated 2022):
Counter-ions that a name gives are not always drawn.

Key:
Abcd1− mice spinal cord = assay: Inflammatory profile (quantitative RT-PCR) and oxidative lesions (GC/MS) in Abcd1− mice spinal cord; type: in vivo; conditions: 12 months of age
Method: a) Th1 (Nfκb2, Il1β, Il6, Tnfα, Tnfrsf1a, Ccl5, Cxcl9, Cxcl10, Ccr6) and b) Th2 (Fizz1, Chil3, Cxcl12, Il10, Igf1, Mif, Tgfβ1) inflammatory profile in WT (n=8), Abcd1^− (n=8) and Abcd1^−+DMF (n=8) mice spinal cord at 12 months of age. Cytokines, chemokines and other inflammation-related genes expression was measured by quantitative RT-PCR. Gene expression levels were normalized relative to Rplp0. Quantification is depicted as fold change to WT mice. c) Oxidative lesions to lipids and proteins in WT (n=5), Abcd1^− (n=5) and Abcd1^−+DMF (n=5) mice spinal cord at 12 months of age. AASA, CEL, CML and MDAL levels were measured by GC/MS. Quantification is represented as fold change to WT mice. Data are shown as mean±SD (*p<0.05, **p<0.01, ***p<0.001 after one-way ANOVA test followed by Tukey's post-hoc test; p<0.05, p<0.01, p<0.001 after non-parametric Kruskal-Wallis' test).
Cages contained 3 to 5 animals.
We used two X-ALD mouse models in this study. We characterized the biochemical signs of adult X-ALD in Abcd1^− mice at 12 months of age. These mice show biochemical signs of pathology, including oxidative stress and energetic homeostasis impairment, before the first clinical signs of AMN-like pathology (axonopathy and locomotor impairment) appear at 20 months.
For biochemical analysis, we killed the mice and stored the tissues at −80° C. after snap-freezing them in liquid nitrogen. For histological analysis, spinal cord was harvested from 18-month-old mice after perfusing them with 4% paraformaldehyde (PFA; Sigma-Aldrich, Ref. 441244) in 0.1 M phosphate buffer pH 7.4. Histological and behavioural tests were performed in a blind way with respect to the animal's genotype and for the treatment administered.
In Abcd1^− mouse, a functional genomics assay detected NFκB-mediated inflammatory pathway activation in Abcd1^− mouse spinal cord, and increased expression of several proinflammatory genes. Regarding AMN patients, we have recently described a general dysregulation of inflammatory pathways in peripheral blood mononuclear cells (PBMCs) and plasma from AMN patients. As DMF is a classical immunomodulatory drug, we examined its effects on mRNA expression of several inflammation-related genes in Abcd1^− mice spinal cord.
Nuclear factor kappa B subunit 2 (Nfκb2), which belongs to the non-canonical NFκB pathway, as well as the majority of M1 markers were increased in Abcd1^− mouse spinal cord, including interleukin 1 beta (Il1β), tumour necrosis factor alpha (Tnfα), tumour necrosis factor receptor superfamily member 1a (Tnfrsf1a), chemokine (C-C motif) ligand 5 (Ccl5), chemokine (C-X-C motif) ligand 9 (Cxcl9), chemokine (C-X-C motif) ligand 10 (Cxcl10) and chemokine (C-C motif) receptor type 6 (Ccr6) (FIG. 2a). […] Only few of them were decreased in Abcd1^− mouse spinal cord: interleukin 6 ([…]), resistin like alpha (Retnla, also called Fizz1) and macrophage migration inhibitory factor (Mif) (FIG. 2a-b).

NRF2 = NRF2 protein levels and NRF2-target gene expression in Abcd1− mice spinal cord after dietary DMF; type: in vivo; conditions: 12 months of age, DMF 100 mg/kg/day in chow for 4 months
Excerpt: a) NRF2 protein levels in WT (n=6), Abcd1^− (n=6) and DMF-treated Abcd1^− mice (Abcd1^−+DMF, n=6) mice spinal cord at 12 months of age. Protein levels were normalized relative to γ-TUB and quantification is depicted as fold change to WT (Wild type) mice. b) NRF2-dependent antioxidative genes (Hmox1, Nqo1 and Gst α 3) expression in WT (n=8), Abcd1^− (n=8) and Abcd1^−+DMF (n=8) mice spinal cord at 12 months of age. Gene expression levels were normalized relative to Rplp0. Quantification is represented as fold change to WT mice. c) Mitochondrial DNA (mtDNA) levels in WT (n=8), Abcd1^− (n=8) and Abcd1^−+DMF (n=8) mice spinal cord at 12 months of age. mtDNA content was measured by quantitative RT-PCR and expressed as the ratio of mtDNA (CytB levels) to nuclear DNA (nDNA, Cebpa levels). Quantification is depicted as fold change to WT mice. d) Sirt1, Pgc-1α, Nrf1 and Tfam expression was measured by quantitative RT-PCR in WT (n=8), Abcd1^− (n=8) and Abcd1^−+DMF (n=8) mice spinal cord at 12 months of age. Gene expression levels were normalized relative to Rplp0. Quantification is depicted as fold change to WT mice. e) ATP levels in WT (n=8), Abcd1^− (n=8) and Abcd1^−+DMF (n=8) mice spinal cord at 12 months of age. Quantification is represented as fold change to WT mice. […]

[1] = Abcd1− mouse spinal cord, DMF 100 mg/kg/day in chow

COC(=O)/C=C/C(=O)OC [DMF, dimethyl fumarate]
oxidative damage to proteins and lipids (AASA, CEL, CML, MDAL) (Abcd1− mice spinal cord; Abcd1− mice spinal cord, DMF 100 mg/kg/day in chow for 4 months): prevents
Il1β and Chil3 mRNA (Abcd1− mice spinal cord; [1]): exacerbated the induction
Tnfrsf1a, Cxcl9 and Fizz1 mRNA (Abcd1− mice spinal cord; [1]): no effect
interleukin 10 (Il10) mRNA (Abcd1− mice spinal cord; [1]): upregulated
mRNA levels of Nfκb2, Il6, Tnfα, Ccl5, Cxcl10, Ccr6, Mif, Cxcl12, Tgfβ1, Igf1 (Abcd1− mice spinal cord; [1]): normalizing
NRF2 protein levels (NRF2): induced
NRF2 target genes expression (Hmox1, Nqo1, Gstα3) (NRF2): induced
